Test results as given in patent US4820821A, “Novel pyridazinone-imines and their physiologically tolerated addition salts with acids, their preparation and therapeutic agents containing these compounds” (BASF Aktiengesellschaft, priority 1981, dated 1989).
Where a name gives a salt, the structure may show the parent alone. Read-outs that look alike come from different tables or passages of the source.

Experiments:
[1] = tested on: reserpine-induced hypothermia; assay: Antidepressive action: reserpine antagonism, inhibition of reserpine-induced hypothermia of the mouse; format: in vivo, male Swiss mice; conditions: for ED50: Mus musculus, dose based on the base, read-out: ED 50% (dose which inhibits the reserpine-induced hypothermia of the mouse by 50%); for R.A. (relative activity), reserpine antagonism: amezinium = 1.00, oral
Description: Antidepressants effect dose-dependent inhibition of this hypotherma. The test substances are administered orally 60 minutes before the administration of reserpine.
The dose which effects 50% inhibition of the reserpine-induced hypothermia is determined, as the ED 50%, from the linear regression between log dose (mg/kg) and relative reduction in hypothermia (Δ%).

[2] = tested on: reserpine-induced hypothermia / blood pressure; assay: Quotient ED 50% antidepressive action / ED 20% hypertensive action; format: in vivo, mouse / rat; conditions: for factor by which the quotient of antidepressive action and hypertensive action is smaller than in the case of amezinium: compounds of Table 1; for Q Increase: Table 2, route of hypertensive test not given; for factor by which the hypertensive dose (ED 20%) is smaller than the antidepressive effective dose (ED 50%): compounds of Table 2;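 for Q Increase: larger quotient means more selective hypertensive action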
Source text: This is evident from the fact that the quotient defined above differs wtih respect to the comparative compounds. […] This arises, inter alia, from the fact that the hypertensive ED 20 constitutes the denominator of the quotient. It is possible that the unforeseeable selective direction of action is attributable to the special substitution,in accordance with the invention, at the 4-imino group.

[3] = tested on: blood pressure; assay: Effect on the blood pressure: hypertensive action, pithed rat; format: in vivo, male Sprague-Dawley rats; conditions: for ED20: Rattus norvegicus, dose based on the base, read-out: ED 20% hypertensive action (dose which increases the blood pressure of the pithed rat by 20%); for R.A. (relative activity), hypertensive action: amezinium = 1.00
Description: The measurement of the blood pressure in the carotid artery was carried out by means of Statham transducers. The substance was administered in the jugular vein (as an aqueous solution, 1 ml/kg) or intraperitoneally (as a tragacanth suspension, 2 ml/kg). The ED 20% is determined as the dose which increases the blood pressure by 20%.

[4] = Table 1, oral administration 60 min before reserpine
[5] = ip, Table 1, i.p. administration
[6] = iv, Table 1, i.v. administration

Row | Structure (SMILES) | ED50 [1, 4] [mg/kg] | R.A. (relative activity), reserpine antagonism ([1]; Table 1) | Q (quotient ED 50% antidepressive action/ED 20% hypertensive action) ([2]; hypertensive test i.p.) | ED20 [3, 5] [mg/kg] | R.A. (relative activity), hypertensive action ([3]; Table 1, i.p. administration) | Q (quotient ED 50% antidepressive action/ED 20% hypertensive action) ([2]; hypertensive test i.v.) | ED20 [3, 6] [mg/kg] | R.A. (relative activity), hypertensive action ([3]; Table 1, i.v. administration) | further results
1 | CCC(=O)N=c1cnn(-c2ccccc2)c(OC)c1 [Example 50] | 0.18 | 4.07 | 0.06 | 3.16 | 0.12 |  |  |  | 
2 | C=CCOC(=O)N=c1cnn(-c2ccccc2)c(OC)c1 [Example 72] | 1.47 | 0.50 |  |  |  | 3.17 | 0.464 | 0.11 | 
3 | CNC(=O)N=c1ccn(-c2ccccc2)nc1 [Example 31, 1,4-dihydro-4-(methylcarbamyl)-imino-1-phenylpyridazine] | 0.28 | 2.62 |  |  |  | 0.19 | 1.47 | 0.03 | factor by which the quotient of antidepressive action and hypertensive action is smaller than in the case of amezinium [2]: 77
4 | CCOc1cc(=NC(=O)c2ccccc2Cl)cnn1-c1ccccc1 [Example 65] |  |  |  |  |  |  |  |  | ED50 ([1]; Table 2, oral administration): > 31.6 mg/kg; R.A. (relative activity), reserpine antagonism ([1]; Table 2): < 0.02; Q Increase [2]: > 59.62; ED20 ([3]; Table 2, route not given): 0.53 mg/kg; R.A. (relative activity), hypertensive action ([3]; Table 2): 0.09
5 | COc1cc(=NC(=O)c2ccc(Cl)cc2)cnn1-c1ccccc1 [Example 66] | 1.8 | 0.41 | < 0.18 | > 10 | < 0.04 |  |  |  | 
6 | CCC(=O)N=c1ccn(-c2ccccc2)nc1 [Example 3, 1,4-dihydro-1-phenyl-4-(propionylimino)-pyridazine hydrochloride] | 0.33 | 2.22 |  |  |  | 1.65 | 0.2 | 0.25 | 
7 | O=C(N=c1ccn(-c2ccccc2)nc1)c1ccc(Cl)c(Cl)c1 [Example 22] | 3.1 | 0.24 | 0.67 | 4.64 | 0.08 |  |  |  | 
8 | CC(C)C(=O)N=c1ccn(-c2ccccc2)nc1 [Example 5, 1,4-dihydro-4-isobutyrylimino-1-phenylpyridazine hydrochloride] | 0.4 | 1.83 |  |  |  | 1.82 | 0.215 | 0.23 | 
9 | CC(C)NC(=O)N=c1ccn(-c2ccccc2)nc1 [Example 37] | 0.7 | 1.05 |  |  |  | 0.70 | 1 | 0.05 | 
10 | CCNC(=O)N=c1ccn(-c2ccccc2)nc1 [Example 84, 1,4-dihydro-4-(ethylcarbamyl)-imino-1-phenylpyridazine] | 0.37 | 1.98 |  |  |  | 0.80 | 0.464 | 0.11 | 
11 | C=C(C)C(=O)N=c1ccn(-c2ccccc2)nc1 [Example 12, 1,4-dihydro-4-methacryloylimino-1-phenylpyridazine] |  |  |  |  |  |  |  |  | ED50 ([1]; Table 2, oral administration): 0.75 mg/kg; R.A. (relative activity), reserpine antagonism ([1]; Table 2): 0.98; Q Increase [2]: 34.09; ED20 ([3]; Table 2, route not given): 0.022 mg/kg; R.A. (relative activity), hypertensive action ([3]; Table 2): 2.27
12 | COc1cc(=NC(=O)c2ccccc2)cnn1-c1ccccc1 [Example 60] | 0.93 | 0.79 | 0.43 | 2.15 | 0.17 |  |  |  | 
13 | COc1cc(=NC(=O)Oc2ccccc2)cnn1-c1ccccc1 [Example 58, 1,4-dihydro-6-methoxy-4-(phenoxycarbonyl)-imino-1-phenylpyridazine] |  |  |  |  |  |  |  |  | ED50 ([1]; Table 2, oral administration): 5.62 mg/kg; R.A. (relative activity), reserpine antagonism ([1]; Table 2): 0.13; Q Increase [2]: 56.20; ED20 ([3]; Table 2, route not given): 0.1 mg/kg; R.A. (relative activity), hypertensive action ([3]; Table 2): 0.50
14 | COc1cc(=NC(=O)c2cccc(C(F)(F)F)c2)cnn1-c1ccccc1 [Example 77] | 3.4 | 0.22 | 1.08 | 3.16 | 0.12 |  |  |  | 
15 | Cc1cccc(C(=O)N=c2ccn(-c3ccccc3)nc2)c1 [Example 23] | 0.98 | 0.74 | 0.98 | 1 | 0.37 |  |  |  | 
16 | COc1cc(=NC(=O)c2ccc(F)cc2)cnn1-c1ccccc1 [Example 79] | 1.14 | 0.64 | 0.11 | 10 | 0.04 |  |  |  | 
17 | O=C(N=c1ccn(-c2ccccc2)nc1)c1ccc(F)cc1 [Example 14, 1,4-dihydro-4-(4-fluorobenzoyl)-imino-1-phenylpyridazine hydrochloride] |  |  |  |  |  |  |  |  | ED50 ([1]; Table 2, oral administration): 1 mg/kg; R.A. (relative activity), reserpine antagonism ([1]; Table 2): 0.73; Q Increase [2]: 23.81; factor by which the hypertensive dose (ED 20%) is smaller than the antidepressive effective dose (ED 50%) [2]: 24; ED20 ([3]; Table 2, route not given): 0.042 mg/kg; R.A. (relative activity), hypertensive action ([3]; Table 2): 1.19
18 | O=C(Cc1ccccc1)N=c1ccn(-c2ccccc2)nc1 [Example 9, 1,4-dihydro-1-phenyl-4-[(phenylacetyl)-imino]-pyridazine hydrochloride] |  |  |  |  |  |  |  |  | ED50 ([1]; Table 2, oral administration): 3.98 mg/kg; R.A. (relative activity), reserpine antagonism ([1]; Table 2): 0.18; Q Increase [2]: 63.17; ED20 ([3]; Table 2, route not given): 0.063 mg/kg; R.A. (relative activity), hypertensive action ([3]; Table 2): 0.79
19 | CCCNC(=O)N=c1ccn(-c2ccccc2)nc1 [Example 85, 1,4-dihydro-1-phenyl-4-[(propylcarbamyl)-imino]-pyridazine] | 0.28 | 2.62 |  |  |  | 0.28 | 1 | 0.05 | factor by which the quotient of antidepressive action and hypertensive action is smaller than in the case of amezinium [2]: 52
20 | O=C(N=c1ccn(-c2ccccc2)nc1)Oc1ccccc1 [Example 30, 1,4-dihydro-4-(phenoxycarbonyl)-imino-1-phenylpyridazine hydrochloride] |  |  |  |  |  |  |  |  | ED50 ([1]; Table 2, oral administration): 4.1 mg/kg; R.A. (relative activity), reserpine antagonism ([1]; Table 2): 0.18; Q Increase [2]: 120.59; factor by which the hypertensive dose (ED 20%) is smaller than the antidepressive effective dose (ED 50%) [2]: 120; ED20 ([3]; Table 2, route not given): 0.034 mg/kg; R.A. (relative activity), hypertensive action ([3]; Table 2): 1.47
21 | COc1cc(=NC(C)=O)cnn1-c1ccccc1 [Example 48, 4-acetylimino-1,4-dihydro-6-methoxy-1-phenylpyridazine perchlorate] | 1.1 | 0.67 | 0.16 | 6.81 | 0.05 |  |  |  | 
22 | COc1cc(=NC(=O)NCc2ccccc2)cnn1-c1ccccc1 [Example 74] | 8.45 | 0.09 |  |  |  | 1.82 | 4.64 | 0.01 | 
23 | O=C(N=c1ccn(-c2ccccc2)nc1)C1CC1 [Example 10, 4-(cyclopropylcarbonyl)-imino-1,4-dihydro-1-phenylpyridazine hydrochloride] | 1.41 | 0.52 |  |  |  | 3.04 | 0.464 | 0.11 | 
24 | O=C(N=c1ccn(-c2ccccc2)nc1)c1ccccc1Cl [Example 17] |  |  |  |  |  |  |  |  | ED50 ([1]; Table 2, oral administration): 2.76 mg/kg; R.A. (relative activity), reserpine antagonism ([1]; Table 2): 0.27; Q Increase [2]: 60.00; ED20 ([3]; Table 2, route not given): 0.046 mg/kg; R.A. (relative activity), hypertensive action ([3]; Table 2): 1.09
25 | COC(=O)[C@H]1[C@H]2C[C@@H]3c4[nH]c5cc(OC)ccc5c4CCN3C[C@H]2C[C@@H](OC(=O)c2cc(OC)c(OC)c(OC)c2)[C@@H]1OC [Reserpine, reference compound] |  |  |  |  |  |  |  |  | reduction of body temperature ([1]; 2.15 mg/kg s.c., 2 hours after administration, ambient 20° to 22° C., average): 3 °C
